Tested on: HGADFN167 cells
Test: RNA-seq global transcriptomic analysis
Assay type: cell-based, human
Conditions: HGADFN167, 5 µM, 20 days
Procedure: To establish the broader impact of PROTAC 2 at the molecular level, we performed detailed gene expression and pathway‐centric enrichment analysis. HGADFN167 cells were treated with either vehicle or compound 2 (5 µM) for 20 days before RNA was extracted for RNA‐seq analysis (3 independent biological samples per condition). […] Remarkably, IL6 identification supports the qPCR results previously obtained (Figure 6C). […] In line with these findings, we identified several genes associated with endothelial and blood vessel development (CLDN11 and FOXS1), ECM organization (PTX3, SCUBE3, TINAGL1, and TNFRSF11B), and mesodermal and mesenchymal regulation (MEST, MEDAG, and STC2).
Cells were harvested by trypsin, centrifuged and washed with PBS. Cells pellets were added with 70% (vol/vol) ice-cold ethanol. The mixture was incubated for 15min at 4 °C, centrifuged 2500 rpm, washed with PBS and then re-suspended in 500ul staining buffer (25ug/mL propidium iodide and 100μg/ml DNAse-free RNAse both from Sigma-Aldrich in PBS). The mixture was then allowed to incubate for 30min at 37 °C in the dark and samples were finally analysed by FACScalibur (Becton Dickinson) flow cytometer
11. Transmission electron microscopy.
Cells previously collected in 1.5 mL tube, were washed with PBS and fixed with 2.5% glutaraldehyde and 4% paraformaldehyde in Milloning´s phosphate buffer (41.5 mL 2.26% NaH2PO4·H2O and 8.5 mL 2.52% NaOH both in milliQ water, pH 7.2-7.4) for 4h at 4 °C. […]
Cells were incubated for 1 h in 1% OsO4 at room temperature and then thoroughly washed with milliQ water. […] The samples were analysed and examined in the transmission electron microscope JEM 1010 at 80 […]
Total RNA of HGPS fibroblasts (HGADFN167) and UCM-18142-treated HGPS fibroblasts were extracted for RNA sequencing. The RNA concentration and integrity were assessed using the Tape Station 4150 system (Agilent). […] All raw reads were mapped to the human genome (Grch38) using the software HISAT2. HTSeq was used to calculate Reads Count and transcripts per kilobase per million reads were computed. […]

CC1(C)Oc2cc3oc(=O)ccc3cc2C[C@@H]1OC(=O)CCCCCNc1cccc2c1C(=O)N(C1CCC(=O)NC1=O)C2=O (stereo partly drawn) [compound 2]
downregulated genes (adjusted p<0.01, log2 FC <−1.0): 205
upregulated genes (adjusted p<0.01, log2 FC >1.0): 83
differentially expressed genes, treated vs non‐treated (adjusted p<0.01, log2 FC >1.0 or <−1.0): 288

From article PMC13252604, “First Generation Proteolysis Targeting Chimeras (PROTACs) for the Treatment of Progeria” (Advanced Science, 2026)
